# Activity calls are given as the source filed them. Cut-off read from the data, not from the text of the source, for most assays here: actives have a measured Kd and inactives only a lower limit.
# Tests used:
# [1] = target: Tyrosine-protein kinase ABL1 (Homo sapiens, UniProt P00519)
# [2] = target: Calcium/calmodulin-dependent protein kinase type II subunit gamma (Homo sapiens, UniProt Q13555)
# [3] = target: Cyclin-dependent kinase 1 (Homo sapiens, UniProt P06493)
# [4] = target: Insulin-like growth factor 1 receptor (Homo sapiens, UniProt P08069)
# Chain of Insulin-like growth factor 1 receptor (P08069 31-736 limits assumed): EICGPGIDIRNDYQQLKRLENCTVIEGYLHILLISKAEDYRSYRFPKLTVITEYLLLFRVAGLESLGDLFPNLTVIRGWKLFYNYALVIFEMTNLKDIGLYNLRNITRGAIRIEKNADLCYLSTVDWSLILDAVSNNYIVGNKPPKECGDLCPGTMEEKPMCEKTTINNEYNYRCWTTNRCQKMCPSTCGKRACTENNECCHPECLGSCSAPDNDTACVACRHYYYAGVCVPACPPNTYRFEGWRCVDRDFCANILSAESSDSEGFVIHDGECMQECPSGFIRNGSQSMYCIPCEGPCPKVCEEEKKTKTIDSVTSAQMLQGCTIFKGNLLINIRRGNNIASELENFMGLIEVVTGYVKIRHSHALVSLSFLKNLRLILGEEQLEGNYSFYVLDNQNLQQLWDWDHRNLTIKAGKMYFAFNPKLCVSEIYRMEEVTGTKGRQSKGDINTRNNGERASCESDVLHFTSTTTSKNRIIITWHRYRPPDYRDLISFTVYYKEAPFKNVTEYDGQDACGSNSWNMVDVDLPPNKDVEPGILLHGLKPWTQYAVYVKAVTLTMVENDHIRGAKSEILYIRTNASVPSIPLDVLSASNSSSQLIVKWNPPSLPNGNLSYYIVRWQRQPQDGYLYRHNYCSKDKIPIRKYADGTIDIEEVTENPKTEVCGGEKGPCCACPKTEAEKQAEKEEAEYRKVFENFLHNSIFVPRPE
# Chain of Insulin-like growth factor 1 receptor (P08069 741-1367 limits assumed): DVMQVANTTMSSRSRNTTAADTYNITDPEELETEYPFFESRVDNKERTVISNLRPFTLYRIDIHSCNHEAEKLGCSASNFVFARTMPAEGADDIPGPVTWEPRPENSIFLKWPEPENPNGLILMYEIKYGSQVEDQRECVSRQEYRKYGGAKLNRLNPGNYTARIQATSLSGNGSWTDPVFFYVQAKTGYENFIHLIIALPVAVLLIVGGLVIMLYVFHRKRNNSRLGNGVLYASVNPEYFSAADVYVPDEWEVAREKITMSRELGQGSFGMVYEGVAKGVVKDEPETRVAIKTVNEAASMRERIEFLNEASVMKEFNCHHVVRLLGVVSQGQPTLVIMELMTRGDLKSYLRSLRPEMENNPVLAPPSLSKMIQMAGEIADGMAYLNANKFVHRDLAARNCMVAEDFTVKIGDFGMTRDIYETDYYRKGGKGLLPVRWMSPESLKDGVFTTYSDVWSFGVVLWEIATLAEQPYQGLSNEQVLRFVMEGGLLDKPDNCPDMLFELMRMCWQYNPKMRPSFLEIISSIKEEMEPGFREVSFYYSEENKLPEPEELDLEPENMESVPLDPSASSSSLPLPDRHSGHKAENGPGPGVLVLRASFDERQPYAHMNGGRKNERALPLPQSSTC
# [5] = target: Insulin receptor (Homo sapiens, UniProt P06213)
# Chain of Insulin receptor (P06213 28-758 limits assumed): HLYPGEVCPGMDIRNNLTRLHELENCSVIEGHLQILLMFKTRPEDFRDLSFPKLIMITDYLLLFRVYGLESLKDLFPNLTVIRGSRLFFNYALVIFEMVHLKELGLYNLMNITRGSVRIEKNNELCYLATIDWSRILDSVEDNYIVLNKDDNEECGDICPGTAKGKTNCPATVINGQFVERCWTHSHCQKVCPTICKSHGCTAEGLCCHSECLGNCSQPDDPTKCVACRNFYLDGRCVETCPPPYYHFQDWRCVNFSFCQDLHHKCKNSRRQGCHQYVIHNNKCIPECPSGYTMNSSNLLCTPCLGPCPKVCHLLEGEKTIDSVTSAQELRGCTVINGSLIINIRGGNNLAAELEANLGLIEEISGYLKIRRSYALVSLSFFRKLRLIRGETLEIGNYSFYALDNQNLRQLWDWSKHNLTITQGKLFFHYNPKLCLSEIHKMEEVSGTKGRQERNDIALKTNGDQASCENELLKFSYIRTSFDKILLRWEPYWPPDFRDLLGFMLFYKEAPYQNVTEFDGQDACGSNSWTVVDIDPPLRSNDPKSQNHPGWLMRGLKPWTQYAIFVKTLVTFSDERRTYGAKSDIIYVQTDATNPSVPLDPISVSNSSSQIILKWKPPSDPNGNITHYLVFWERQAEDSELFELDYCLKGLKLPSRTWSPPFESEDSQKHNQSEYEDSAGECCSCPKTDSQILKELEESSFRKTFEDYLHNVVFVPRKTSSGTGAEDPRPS
# Chain of Insulin receptor (P06213 763-1382 limits assumed): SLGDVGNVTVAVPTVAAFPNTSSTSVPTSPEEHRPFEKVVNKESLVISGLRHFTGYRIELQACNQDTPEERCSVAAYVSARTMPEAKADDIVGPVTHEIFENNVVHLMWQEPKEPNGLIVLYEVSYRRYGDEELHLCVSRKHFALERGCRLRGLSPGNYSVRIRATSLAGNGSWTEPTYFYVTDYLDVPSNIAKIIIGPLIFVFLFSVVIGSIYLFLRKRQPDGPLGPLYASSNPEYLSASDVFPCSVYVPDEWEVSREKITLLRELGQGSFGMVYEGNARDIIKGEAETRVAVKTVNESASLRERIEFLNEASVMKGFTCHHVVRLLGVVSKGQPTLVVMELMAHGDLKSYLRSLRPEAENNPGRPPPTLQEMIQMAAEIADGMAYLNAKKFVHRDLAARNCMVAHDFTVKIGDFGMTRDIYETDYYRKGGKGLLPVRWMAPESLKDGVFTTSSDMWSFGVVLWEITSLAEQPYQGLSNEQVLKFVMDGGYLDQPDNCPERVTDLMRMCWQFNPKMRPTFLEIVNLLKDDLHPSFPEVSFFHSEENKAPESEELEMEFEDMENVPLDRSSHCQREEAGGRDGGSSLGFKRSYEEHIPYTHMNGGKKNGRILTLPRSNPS
# [6] = target: Mitogen-activated protein kinase kinase kinase 4 (Homo sapiens, UniProt Q9Y6R4)
# [7] = target: T1, MAP kinase-activated protein kinase 5 (Homo sapiens, UniProt Q8IW41)
# T1 sequence (Q8IW41 whole entry): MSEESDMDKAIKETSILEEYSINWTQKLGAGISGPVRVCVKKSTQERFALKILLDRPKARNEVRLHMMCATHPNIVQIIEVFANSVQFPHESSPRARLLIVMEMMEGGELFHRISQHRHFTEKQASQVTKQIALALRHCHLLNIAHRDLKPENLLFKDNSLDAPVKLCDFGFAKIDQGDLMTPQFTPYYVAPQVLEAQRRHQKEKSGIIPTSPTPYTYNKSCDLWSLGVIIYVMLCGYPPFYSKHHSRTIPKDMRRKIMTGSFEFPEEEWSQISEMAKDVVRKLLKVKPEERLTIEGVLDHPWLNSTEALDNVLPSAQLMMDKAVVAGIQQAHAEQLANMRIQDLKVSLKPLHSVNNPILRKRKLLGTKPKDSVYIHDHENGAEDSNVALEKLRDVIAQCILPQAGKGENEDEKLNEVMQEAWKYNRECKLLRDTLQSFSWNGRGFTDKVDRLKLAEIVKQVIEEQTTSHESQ
# [8] = target: Myosin-14 (Homo sapiens, UniProt Q7Z406)
# [9] = target: T2, Serine/threonine-protein kinase Nek9 (Homo sapiens, UniProt Q8TD19)
# T2 sequence (Q8TD19 whole entry): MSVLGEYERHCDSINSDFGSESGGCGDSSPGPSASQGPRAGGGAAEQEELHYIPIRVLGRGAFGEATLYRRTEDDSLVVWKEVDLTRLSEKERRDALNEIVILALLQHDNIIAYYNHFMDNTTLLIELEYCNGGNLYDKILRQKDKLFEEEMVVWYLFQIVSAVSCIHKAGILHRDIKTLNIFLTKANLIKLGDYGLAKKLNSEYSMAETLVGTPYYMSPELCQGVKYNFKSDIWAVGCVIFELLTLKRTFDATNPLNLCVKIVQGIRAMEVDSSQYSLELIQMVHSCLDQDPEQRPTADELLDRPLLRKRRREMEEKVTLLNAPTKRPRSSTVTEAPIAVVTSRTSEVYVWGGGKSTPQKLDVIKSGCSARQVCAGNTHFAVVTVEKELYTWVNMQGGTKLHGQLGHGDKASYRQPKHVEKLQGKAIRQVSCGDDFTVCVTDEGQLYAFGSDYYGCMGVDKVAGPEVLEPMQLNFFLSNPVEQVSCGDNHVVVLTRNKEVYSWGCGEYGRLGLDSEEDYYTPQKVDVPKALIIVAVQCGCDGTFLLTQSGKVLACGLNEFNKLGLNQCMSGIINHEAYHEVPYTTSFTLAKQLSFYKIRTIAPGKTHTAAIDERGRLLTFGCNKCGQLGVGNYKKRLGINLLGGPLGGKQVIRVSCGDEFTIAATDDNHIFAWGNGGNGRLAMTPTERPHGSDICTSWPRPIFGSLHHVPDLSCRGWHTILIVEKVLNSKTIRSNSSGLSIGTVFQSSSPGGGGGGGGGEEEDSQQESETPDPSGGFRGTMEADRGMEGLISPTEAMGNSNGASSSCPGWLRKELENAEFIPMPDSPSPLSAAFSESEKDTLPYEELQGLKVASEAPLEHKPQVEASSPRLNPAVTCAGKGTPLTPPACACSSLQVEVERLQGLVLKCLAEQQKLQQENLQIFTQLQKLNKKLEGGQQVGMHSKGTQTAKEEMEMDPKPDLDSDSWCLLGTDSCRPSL
# [10] = target: T3, Ribosyldihydronicotinamide dehydrogenase [quinone] (Homo sapiens, UniProt P16083)
# T3 sequence (P16083 whole entry): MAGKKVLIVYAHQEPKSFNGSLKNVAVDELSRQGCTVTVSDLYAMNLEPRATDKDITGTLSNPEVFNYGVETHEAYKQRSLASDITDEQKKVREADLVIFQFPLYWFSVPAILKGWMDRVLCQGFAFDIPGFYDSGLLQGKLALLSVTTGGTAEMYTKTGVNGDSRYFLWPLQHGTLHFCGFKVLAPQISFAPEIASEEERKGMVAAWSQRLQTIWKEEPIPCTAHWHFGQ
# [11] = target: Serine/threonine-protein kinase SIK2 (Homo sapiens, UniProt Q9H0K1)
# [12] = target: T4, Serine/threonine-protein kinase ULK3 (Homo sapiens, UniProt Q6PHR2)
# T4 sequence (Q6PHR2 whole entry): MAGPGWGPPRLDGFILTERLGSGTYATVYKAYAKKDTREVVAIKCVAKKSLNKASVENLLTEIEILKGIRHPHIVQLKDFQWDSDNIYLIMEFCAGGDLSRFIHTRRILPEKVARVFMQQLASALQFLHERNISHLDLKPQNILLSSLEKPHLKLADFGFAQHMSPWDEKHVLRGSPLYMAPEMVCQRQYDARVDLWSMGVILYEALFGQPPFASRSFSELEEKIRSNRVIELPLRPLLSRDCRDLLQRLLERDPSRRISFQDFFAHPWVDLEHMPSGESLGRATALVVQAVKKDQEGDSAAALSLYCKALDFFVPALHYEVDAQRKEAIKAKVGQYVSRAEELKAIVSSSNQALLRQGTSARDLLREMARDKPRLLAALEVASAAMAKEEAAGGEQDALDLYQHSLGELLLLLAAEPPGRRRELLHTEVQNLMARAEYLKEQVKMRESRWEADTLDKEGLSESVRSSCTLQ
# Note: in the data inactive means no Kd found up to 30 µM.
# Chain of Cyclin-dependent kinase 1 (P06493 whole entry): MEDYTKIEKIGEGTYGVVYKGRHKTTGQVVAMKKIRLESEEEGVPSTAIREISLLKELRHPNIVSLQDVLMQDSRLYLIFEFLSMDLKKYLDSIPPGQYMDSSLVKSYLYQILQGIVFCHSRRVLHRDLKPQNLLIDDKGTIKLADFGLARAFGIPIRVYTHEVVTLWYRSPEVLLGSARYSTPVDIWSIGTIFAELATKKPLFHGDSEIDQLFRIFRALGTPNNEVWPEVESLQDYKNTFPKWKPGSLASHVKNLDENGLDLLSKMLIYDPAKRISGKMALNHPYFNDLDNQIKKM
# Chain of Calcium/calmodulin-dependent protein kinase type II subunit gamma (Q13555 whole entry): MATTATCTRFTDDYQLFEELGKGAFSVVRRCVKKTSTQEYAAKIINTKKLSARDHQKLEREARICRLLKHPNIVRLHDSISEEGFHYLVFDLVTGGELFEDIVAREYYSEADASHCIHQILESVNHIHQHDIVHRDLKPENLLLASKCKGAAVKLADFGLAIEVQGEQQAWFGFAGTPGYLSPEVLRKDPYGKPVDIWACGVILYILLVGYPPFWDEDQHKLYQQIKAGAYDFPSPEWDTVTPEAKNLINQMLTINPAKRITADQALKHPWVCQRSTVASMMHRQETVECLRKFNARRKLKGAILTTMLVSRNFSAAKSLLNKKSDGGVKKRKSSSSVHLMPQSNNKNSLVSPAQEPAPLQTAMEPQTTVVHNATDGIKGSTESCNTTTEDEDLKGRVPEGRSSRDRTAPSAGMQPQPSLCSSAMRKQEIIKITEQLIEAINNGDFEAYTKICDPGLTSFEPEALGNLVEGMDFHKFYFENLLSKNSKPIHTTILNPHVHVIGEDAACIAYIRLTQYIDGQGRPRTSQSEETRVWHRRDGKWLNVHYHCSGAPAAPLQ
# Chain of Tyrosine-protein kinase ABL1 (P00519 whole entry): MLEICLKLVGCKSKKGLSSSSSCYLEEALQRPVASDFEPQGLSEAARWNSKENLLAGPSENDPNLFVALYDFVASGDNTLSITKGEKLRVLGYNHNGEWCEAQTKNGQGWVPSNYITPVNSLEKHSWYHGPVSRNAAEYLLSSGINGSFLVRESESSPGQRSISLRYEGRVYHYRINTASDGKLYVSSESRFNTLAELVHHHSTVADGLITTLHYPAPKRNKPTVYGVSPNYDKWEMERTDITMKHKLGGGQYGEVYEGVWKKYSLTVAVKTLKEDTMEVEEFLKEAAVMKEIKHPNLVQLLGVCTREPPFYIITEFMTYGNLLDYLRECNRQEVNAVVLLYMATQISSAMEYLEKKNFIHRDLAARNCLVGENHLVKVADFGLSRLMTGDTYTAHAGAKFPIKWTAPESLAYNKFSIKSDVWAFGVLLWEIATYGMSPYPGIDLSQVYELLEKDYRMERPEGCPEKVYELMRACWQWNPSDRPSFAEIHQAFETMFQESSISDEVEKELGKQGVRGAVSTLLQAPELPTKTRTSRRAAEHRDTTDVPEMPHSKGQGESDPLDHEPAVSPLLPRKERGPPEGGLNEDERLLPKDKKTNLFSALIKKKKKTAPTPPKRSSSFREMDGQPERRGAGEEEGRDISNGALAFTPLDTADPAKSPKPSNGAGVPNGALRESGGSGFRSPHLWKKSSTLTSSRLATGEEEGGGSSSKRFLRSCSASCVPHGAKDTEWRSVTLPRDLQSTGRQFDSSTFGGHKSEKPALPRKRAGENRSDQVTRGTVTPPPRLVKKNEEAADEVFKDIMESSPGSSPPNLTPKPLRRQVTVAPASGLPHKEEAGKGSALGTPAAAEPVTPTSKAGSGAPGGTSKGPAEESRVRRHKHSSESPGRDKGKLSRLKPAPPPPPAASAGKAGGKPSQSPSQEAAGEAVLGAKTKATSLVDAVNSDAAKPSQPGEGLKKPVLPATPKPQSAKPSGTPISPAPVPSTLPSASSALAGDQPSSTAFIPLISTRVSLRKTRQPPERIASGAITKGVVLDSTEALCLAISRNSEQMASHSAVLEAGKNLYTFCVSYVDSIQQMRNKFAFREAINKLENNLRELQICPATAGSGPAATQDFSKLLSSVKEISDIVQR
Structure (SMILES),Kd [1],Kd [2],Kd [3],Kd [4],Kd [5],Kd [6],Kd [7],Kd [8],Kd [9],Kd [10],Kd [11],Kd [12]
Cc1cc(C(=O)Nc2cc(Oc3ccc4nc(NC(=O)C5CC5)cn4n3)ccc2C)n(C)n1 [TAK-593],0.918 µM (active),> 30 µM (inactive),> 30 µM (inactive),> 30 µM (inactive),> 30 µM (inactive),> 30 µM (inactive),> 30 µM (inactive),> 30 µM (inactive),> 30 µM (inactive),> 30 µM (inactive),> 30 µM (inactive),> 30 µM (inactive)
Cn1c(=O)c(F)c(Nc2ccc(I)cc2F)c2c(=O)n(C[C@@H](O)CO)cnc21 [TAK-733],> 30 µM (inactive),> 30 µM (inactive),> 30 µM (inactive),> 30 µM (inactive),> 30 µM (inactive),> 30 µM (inactive),> 30 µM (inactive),> 30 µM (inactive),> 30 µM (inactive),> 30 µM (inactive),> 30 µM (inactive),> 30 µM (inactive)
Cc1cc(-c2cc(OC(=O)c3ccccc3)ccc2Cl)cc2nnc(Nc3ccc(OCCN4CCCC4)cc3)nc12 [TG100-801],10.7 µM (active),> 30 µM (inactive),> 30 µM (inactive),> 30 µM (inactive),> 30 µM (inactive),> 30 µM (inactive),> 30 µM (inactive),> 30 µM (inactive),> 30 µM (inactive),> 30 µM (inactive),> 30 µM (inactive),> 30 µM (inactive)
C[C@@H]1COC(Nc2ccc3ncnc(Nc4ccc(OCc5nccs5)c(Cl)c4)c3c2)=N1 [VARLITINIB],> 30 µM (inactive),> 30 µM (inactive),> 30 µM (inactive),> 30 µM (inactive),> 30 µM (inactive),> 30 µM (inactive),> 30 µM (inactive),> 30 µM (inactive),> 30 µM (inactive),> 30 µM (inactive),> 30 µM (inactive),> 30 µM (inactive)
CNC(=O)c1cccc(-c2ccc3c(N4CCOC[C@@H]4C)nc(N4CCOC[C@@H]4C)nc3n2)c1 [VISTUSERTIB],> 30 µM (inactive),> 30 µM (inactive),> 30 µM (inactive),> 30 µM (inactive),> 30 µM (inactive),> 30 µM (inactive),> 30 µM (inactive),> 30 µM (inactive),> 30 µM (inactive),> 30 µM (inactive),> 30 µM (inactive),> 30 µM (inactive)
NC(=O)c1ccc(N(C(N)=O)c2c(F)cccc2F)nc1-c1ccc(F)cc1F [VX-702],> 30 µM (inactive),> 30 µM (inactive),> 30 µM (inactive),> 30 µM (inactive),> 30 µM (inactive),> 30 µM (inactive),> 30 µM (inactive),> 30 µM (inactive),> 30 µM (inactive),> 30 µM (inactive),> 30 µM (inactive),> 30 µM (inactive)
COc1cc2ncnc(Nc3ccc(O)cc3)c2cc1OC [WHI-P131],> 30 µM (inactive),> 30 µM (inactive),> 30 µM (inactive),> 30 µM (inactive),> 30 µM (inactive),> 30 µM (inactive),> 30 µM (inactive),> 30 µM (inactive),> 30 µM (inactive),> 30 µM (inactive),> 30 µM (inactive),> 30 µM (inactive)

# — ChEMBL document CHEMBL3991601, “The target landscape of clinical kinase drugs” (Science, 2017)
